From patent US12002595B2, “Separation of metal ions by liquid-liquid extraction” (priority 2016, dated 2024)

Experiments:
[1] = Stability constant (log β) of ligand-metal complexes; format: binding; settings: Log β110 (Th^4+) versus Log β110 (Eu^3+)
Procedure: Solution Thermodynamics. All titrant solutions were degassed by boiling for 1 h while being purged under Ar. Carbonate-free 0.1 M KOH was prepared from concentrate (J. T Baker Dilut-It) and was standardized by titrating against 0.1 M potassium hydrogen phthalate (99.95%, Sigma Aldrich). Solutions of 0.1 M HCl were similarly prepared and were standardized by titrating against TRIS (99.9%, J. T. Baker). The glass electrode (Metrohm—Micro Combi—response to [H+]) used for the pH measurements was calibrated at 25.0° C. and at an ionic strength of 0.1 M (KCl) before each potentiometric or spectrophotometric titration. The calibration data were analyzed using the program GLEE (Gans & O'Sullivan, Talanta, 2000, 51 (1): 33-37) to refine for the E° and slope. All thermodynamic measurements were conducted at 25.0° C., in 0.1 M KCl supporting electrolyte under positive Ar gas pressure. The automated titration system was controlled by an 867 pH Module (Metrohm). Two-milliliter Dosino 800 burets (Metrohm) dosed the titrant (0.1 M KOH or 0.1 M HCl) into the thermostated titration vessel (5-90 mL). UV-visible spectra were acquired with an Ocean Optics USB4000-UV-vis spectrometer equipped with a TP-300 dip probe (Ocean Optics; path length of 10 mm), fiber optics and a DH-2000 light source (deuterium and halogen lamps). The fully automated titration system and the UV-vis spectrophotometer were coordinated by LBNL titration system, a computer program developed in house.
Incremental Spectrophotometric Titrations. This method was used to determine the protonation constants of 3,4,3-LI(CAM) as well as the stability constants of its complexes formed with Eu(III), Zr(IV) and ^232Th(IV). The experimental titration setup is similar to previously described systems (Sturzbecher-Hoehne, et al., Radiochimica Acta., 2013, 101 (6): 359-366). For the 3,4,3-LI(CAM) protonation (and Eu(III)-3,4,3-LI(CAM) complexes), titrations were performed with an initial concentration of 50 μM of 3,4,3-LI(CAM) (and 50 μM of Eu(III)) resulting in absorbance values included between 0 and 1.0 throughout the titration. Typically, 9 mL of a sample containing 3,4,3-LI(CAM) (and Eu(III)) and the supporting electrolyte (KCl/HCl) were incrementally perturbed by addition of 0.025 mL of carbonate-free 0.1 M KOH followed by a time delay of 80 s. Buffering of the solution was ensured by the addition of 10 mM of HEPES, 10 mM of CHES and 10 mM of MES. Between 130 and 250 data points were collected per titration, each data point including a pH measurement and a UV-Vis spectrum (250-450 nm) over the pH range 1.5 to 12.0. All spectra were corrected for dilution before data fitting. The entire procedure (electrode calibrate, titration and data treatment) was performed independently five times for the protonation constants and four times for the Eu(III)-3,4,3-LI(CAM) complexes. For the Zr(IV) and Th(IV) complexes, titrations were performed similarly but in the presence of DTPA to avoid the formation of metal hydroxides at low pH, before the uptake by 3,4,3-LI(CAM). For each metal, three titrations were performed independently in the presence of 1.1 to 40 equivalents of DTPA.
Data Treatment. […] All metal and chelator concentrations were held at estimated values determined from the volume of standardized stock solutions. All species formed with 3,4,3-LI(CAM) were considered to have significant absorbance to be observed in the UV-vis spectra and were therefore included in the refinement process. […]

[2] = Persistence of the metal complex versus acidity; format: binding; settings: Zr^4+
[3] = Extraction by TODGA from HNO3 in the absence or presence of 1 mM 343HOPO
Procedure: Aqueous phase: 0 or 1 mM 343HOPO in HNO3. Organic phase: 0.1 M TODGA in kerosene. T=25° C. O/A=1, one contact. Points with arrows are lower limits.
Aqueous phase: 1 mM 343HOPO in 3 M HNO3. Organic phase: TODGA in kerosene. O/A=1. One contact. T=25° C.
For Example 20—Example 24, pH measurements were performed with a glass electrode (Metrohm-Micro Combi-response to [H+]) calibrated at 25.0° C. using three NIST standards. Extraction samples were analyzed by liquid scintillation counting (LSC). The distribution coefficient, D(M), of a given metal, M, is defined in Eq. 1, where [M]organic and [M]aqueous are the respective total concentrations of M in the organic and aqueous layers, after extraction. Both concentrations are proportional to the volumetric activity (in Bq/L) determined by LSC. The separation factor, SFM1/M2, between two metals, M1 and M2, and extraction yield were calculated according to Eq. 2 and Eq. 3, respectively.
In a typical experiment, the solvent (extractant diluted in kerosene) was pre-conditioned by shaking one volume of solvent with three volumes of aqueous phase (typically HNO3) at room temperature for 1 h, thrice. For radioisotope extractions, at least 400 μL aqueous phase (typically containing HNO3, a chelator and a radioisotope) and solvent were placed in air-tight screw-capped plastic tubes, triply-contained, and shaken in a thermoshaker at 300 rpm, 25° C., for at least 30 min. Samples were then centrifuged for 5 min at 3000 rpm and phases separated before analysis. LSC analyses were performed on a Packard Tri-Carb B4430 instrument (Perkin Elmer) after mixing sample aliquots or sample dilution aliquots (10 to 200 μL) with 10 mL of scintillation cocktail (UltimaGold LLT). Samples were counted for at least 6 min and results were background subtracted. The analytical samples contained between 0 and 800,000 CPM. Mixtures of ^249Bk and ^249Cf were analyzed using α/β discrimination and energy windows were set to 0-50 keV for low-energy β particles of ^249Bk and 50-1000 keV for α particles of ^249Cf. ^243Am and ^225Ac samples were counted at secular equilibrium.

In the case of O=C(NCCCN(CCCCN(CCCNC(=O)c1cccc(=O)n1O)C(=O)c1cccc(=O)n1O)C(=O)c1cccc(=O)n1O)c1cccc(=O)n1O [3,4,3-LI(1,2-HOPO)], the “Δ log β” value [1] is reported as 19.9, the “acidity range over which the ligand stays bound” value [2] is reported as “from pH 8 to strongly acidic solutions (at least 6 M HCl)” and the “SF, isolation of Bk from adjacent actinides and fission products” value ([3]; one-step separation method, summary statement) is reported as > 3×10^6. For the same molecule, the SFCf/Bk ([3]; regardless of the TODGA and HNO3 concentrations) was > 1,000,000 and the Bk extracted ([3]; throughout the acidity range, 1 mM 343HOPO, 0.1 M TODGA) was “less than 1%”.

In the case of O=C(O)CN(CCN(CC(=O)O)CC(=O)O)CCN(CC(=O)O)CC(=O)O [DTPA, Diethylenetriaminepentaacetic acid, reference compound], the “Δ log β” value [1] is reported as 6.3.
